Data on four compounds can be found in patent publication US20210238173A1, “MITOGEN-ACTIVATED PROTEIN KINASE KINASE 7 INHIBITORS” (Yeda Research and Development Co. Ltd., priority 2018, published 2021).

The test system of one test is pJNK in 3T3 WT cells. Nature of the test: In-cell western (ICW) pJNK inhibition in 3T3 WT. The note with it: 3T3 WT, sorbitol stimulation. It is filed as cell-based. On the procedure: (§1) HEK293, Beas2B and 3T3 cells were plated 24 hours before procedure on 384 well clear bottom black flat plates (Corning) pre-coated with Fibronectin (Sigma) diluted in PBS to a concentration of 5 μg/ml 45 minutes prior to cells introduction. Cells were plated using Multidrop™ Combi reagent dispenser (Thermo Fisher Scientific). Compound, reagents and antibody dispensing as well as washes were performed with a CyBio liquid handler (Analytik). Cells were pre-incubated with a small molecule or up to 1% DMSO for 2 h before fixation. HEK293, 3T3 or Beas2B cells were treated with 0.6M/0.2M/0.2M D-Sorbitol/PBS (Sigma) for 20/40/40 min. respectively, before fixation. Media was removed and wells were immediately fixed with 150 μl per well of 3.7% formaldehyde/PBS fixing solution for 20 min. Formaldehyde was then aspired and cells were permeabilized with 150 μl of 0.5% Triton x-100/PBS solution for 10 min. After aspiration cells were washed with ice-cold methanol and stored at −20° C., for 10 min. Methanol was aspired and cells were blocked with 150 μl blocking buffer (LICOR) for 90 min. Primary antibody Phospho-SAPK/JNK T183/Y185 (CST; 9251S) was diluted 1:1000 in blocking buffer and was applied 50 μl per well, except control wells to which only blocking buffer was applied, O.N. (16 h) at 4° C. with mild shaking. Primary antibody was aspired, wells were washed with 150 μl 0.1% Tween20/PBS (Sigma) washing solution three times for 7 min. IRDye® 800CW Goat anti-Rabbit IgG Secondary antibody (LICOR) was then diluted 1:1200 in blocking buffer with 50 μl applied per well on control wells only (no CellTag control), then CellTag700 (1:2000) was added to the solution and 50 μl were added to all experiment wells, for 1 h at room temperature. Wells were aspired and washed again with 150 μl 0.1% Tween20/PBS (Sigma) washing solution three times for 7 min. plate was dried and scanned with Odyssey CLx imaging system at 700 nm and 800 nm (Licor). Wells signals were analyzed with Odyssey software. The signal was normalized by the CellTag700 signal.
(§2) To rapidly assess the cellular activity (EC50) with full dose response curves of the MKK7 covalent inhibitors, according to some embodiments of the present invention, an in-cell western assay was adapted to a 384 well plate format over traditional western blot, and monitored phospho-JNK (pJNK) levels in response to osmotic shock. We first characterized the dynamics of pJNK in response to sorbitol. Sufficient dynamic range for pJNK is achieved at 20 minutes in HEK293 cells and at 40 minutes in 3T3 and Beas2B cells. The compound's activity was assessed by pre-treating cells with either compound or DMSO for 2 hours, followed by Sorbitol stimulation. The response of pJNK, and its substrates, pc-Jun and pATF2, was measured, as well as pP38, which is a substrate of MKK4 but not MKK7, and pERK in HEK293 cells, and the results are presented in Table 5 below.
Wildtype 3T3 cells, 3T3 MKK7 double knock-out (MKK7^−/−) cells and MKK4/7 double knockouts (MKK4/7^−/−) were used to validate on target activity of the MKK7 covalent inhibitors presented herein.

In the next test the test system is p-cJun in HEK293 cells. Nature of the test: p-cJun inhibition in HEK293 cells. The note with it: Homo sapiens. Type of test: cell-based. Here is the method: as §1, with “Primary antibody was aspired, wells were washed with 150 μl 0.1% Tween20/PBS (Sigma) washing solution three times for 7 min. IRDye® 800CW Goat anti-Rabbit IgG Secondary antibody (LICOR) was then diluted 1:1200 in blocking buffer with 50 μl applied per well on control wells only (no CellTag control), then CellTag700 (1:2000) was added to the solution and 50 μl were added to all experiment wells, for 1 h at room temperature. Wells were aspired and washed again with 150 μl 0.1% Tween20/PBS (Sigma) washing solution three times for 7 min. plate was dried and scanned with Odyssey CLx imaging system at 700 nm and 800 nm (Licor).” left out, “The signal was normalized by the CellTag700 signal.” left out
as §2, with “We first characterized the dynamics of pJNK in response to sorbitol. Sufficient dynamic range for pJNK is achieved at 20 minutes in HEK293 cells and at 40 minutes in 3T3 and Beas2B cells.” left out

For the next test, the target named is T1, MKK4 (Homo sapiens, UniProt P45985).
T1 construct: purchased Nanosyn (contract assay)
T1 sequence (P45985 1-399): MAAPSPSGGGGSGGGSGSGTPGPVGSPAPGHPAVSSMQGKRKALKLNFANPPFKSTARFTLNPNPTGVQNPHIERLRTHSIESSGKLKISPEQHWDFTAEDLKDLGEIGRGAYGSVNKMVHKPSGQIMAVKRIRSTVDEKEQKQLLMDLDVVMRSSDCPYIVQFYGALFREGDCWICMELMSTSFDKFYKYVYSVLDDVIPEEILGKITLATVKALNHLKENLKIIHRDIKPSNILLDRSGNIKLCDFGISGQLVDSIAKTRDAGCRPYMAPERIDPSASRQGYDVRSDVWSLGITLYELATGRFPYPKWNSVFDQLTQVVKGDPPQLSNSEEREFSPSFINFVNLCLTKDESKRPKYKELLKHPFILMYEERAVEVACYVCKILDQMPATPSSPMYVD
Nature of the test: In vitro activity assay for MKK4 (Nanosyn). It is filed as biochemical. Here is the method:
(§3) In Vitro Activity Assays for MKK7 or MKK4 (Carried by Nanosyn):
(§4) Exemplary test compounds, according to some embodiments of the present invention, were diluted in DMSO to a final concentration that ranged from 10 μM to 0.0565 nM, while final concentration of DMSO in all assays was kept at 1%. Reference compound, Staurosporine, was tested in a similar manner. […] After incubation, activity of now activated JNK1 was tested in the presence of 30 μM ATP ATP for 17 h (MKK7) or 4 h (MKK4).

The next test has as its system pERK in HEK293 cells. Nature of the test: pERK response in HEK293 cells. Type of test: cell-based. The following applies: at 10 μM. On the procedure: as §2
(§5) With similar values for pcJun (2.26 μM and 1.67 μM, respectively) and pATF2 (2.79 μM 5.19 μM, respectively).

For a further test, the system named is pJNK in HEK293 cells. Nature of the test: In-cell western (ICW) pJNK inhibition in HEK293. The note with it: Homo sapiens, HEK293, HEK293, ICW, 2 h pre-incubation, sorbitol stimulation. Type of test: cell-based. On the procedure: as §1, §2
In another test the test system is pP38 in HEK293 cells. Nature of the test: pP38 response in HEK293 cells. The note with it: at 10 μM. Type of test: cell-based. On the procedure: as §2, §5
A further test concerns pATF2 in HEK293 cells. Nature of the test: pATF2 inhibition in HEK293 cells. Type of test: cell-based. The following applies: Homo sapiens. On the procedure:
as §1, with “Primary antibody was aspired, wells were washed with 150 μl 0.1% Tween20/PBS (Sigma) washing solution three times for 7 min. IRDye® 800CW Goat anti-Rabbit IgG Secondary antibody (LICOR) was then diluted 1:1200 in blocking buffer with 50 μl applied per well on control wells only (no CellTag control), then CellTag700 (1:2000) was added to the solution and 50 μl were added to all experiment wells, for 1 h at room temperature. Wells were aspired and washed again with 150 μl 0.1% Tween20/PBS (Sigma) washing solution three times for 7 min. plate was dried and scanned with Odyssey CLx imaging system at 700 nm and 800 nm (Licor).” left out, “The signal was normalized by the CellTag700 signal.” left out
as §2, with “We first characterized the dynamics of pJNK in response to sorbitol. Sufficient dynamic range for pJNK is achieved at 20 minutes in HEK293 cells and at 40 minutes in 3T3 and Beas2B cells.” left out

The target of the next test is T2, MKK7 (Homo sapiens, UniProt O14733).
T2 construct: purchased Nanosyn (contract assay)
T2 sequence (O14733 1-419): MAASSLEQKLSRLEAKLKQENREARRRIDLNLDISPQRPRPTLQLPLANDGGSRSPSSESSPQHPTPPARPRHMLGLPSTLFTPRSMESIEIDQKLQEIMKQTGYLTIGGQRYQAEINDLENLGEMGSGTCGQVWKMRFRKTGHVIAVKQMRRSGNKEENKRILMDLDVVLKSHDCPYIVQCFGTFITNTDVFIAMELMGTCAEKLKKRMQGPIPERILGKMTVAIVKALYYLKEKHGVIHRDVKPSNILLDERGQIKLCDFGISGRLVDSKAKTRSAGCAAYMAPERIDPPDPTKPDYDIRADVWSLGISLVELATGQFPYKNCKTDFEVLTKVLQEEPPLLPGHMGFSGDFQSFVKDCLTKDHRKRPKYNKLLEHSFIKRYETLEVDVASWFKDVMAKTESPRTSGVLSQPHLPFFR
Nature of the test: In vitro kinase activity assay for MKK7 (Nanosyn). It is filed as biochemical. The following applies: read-out: MKK7 IC50 in vitro. Here is the method: Based on visual inspection of the top 500 predictions, 10 compounds were selected for synthesis and testing (see, Table 1). The “Docking rank” is given in its respective run, whereas four virtual libraries of acrylamides were docked separately, based on the amine precursor for the acrylamide (primary or secondary aliphatic amines, primary or secondary aromatic amines). In vitro kinase activity assay was carried out by Nanosyn, as described below.
as §3, §4

The test system of another test is JNK activation. Nature of the test: KTR reporter live cell imaging of JNK activation. It is filed as cell-based. The note with it: Homo sapiens; HEK293 cells; read-out: EC50 of test and control compounds. An excerpt:
As an orthogonal assay for the ICW we used a KTR reporter cell line for JNK activation via live cell imaging.

Test [1] addresses T3, MKK7 in MDA-MB-231 lysate (Homo sapiens, UniProt O14733).
T3 construct: endogenous in cells; host or cells: MDA-MB-231
T3 sequence (O14733 1-419): T2 sequence (O14733 1-419)
Nature of the test: Proteomic selectivity labeling in human cell lysate (MDA-MB-231). It is filed as binding.

A further test concerns primary mouse B-cells. Nature of the test: Primary B-cell activation (CD86+ FACS) in response to LPS. It is filed as cell-based. The following applies: Mus musculus, B-cell. From the text: Compounds Block Activation of Primary Mouse B-Cells:
JNK is known to mediate activation of B-cells in response to lypopolysacharide (LPS) through the TLR4 signaling pathway as well as in response to B-cell receptor activation (stimulated e.g. with an anti-IgM antibody). Primary B-cells were isolated from the spleen of mice and assessed for their B-cell activation, via FACS analysis of CD86+ expression, in response to LPS in the presence or absence of the covalent MKK7 enzyme inhibitors presented herein, as well as a positive control JNK inhibitor, JNK-IN-8.
At 10 μM and 2 hours pre-incubation before stimulation, GO80 was able to inhibit 60% of the CD86+ response.

As to `C=CC(=O)Nc1cccc(-c2n[nH]c3cc([N+](=O)[O-])ccc23)c1` [GO37], the 50% effective concentration (EC50) (as a rule, the concentration needed to bring the measured effect to its halfway point) is 4.2 µM in the test on pJNK in 3T3 WT cells (ICW, 2 h pre-incubation); 2.52 µM in the test on p-cJun in HEK293 cells; 0.73 µM in the test with pJNK in HEK293 cells; 3.71 µM with pATF2 in HEK293 cells. Besides, the IC50 – broadly, the concentration that gives 50% inhibition – in the test with pJNK in 3T3 WT cells is 5.33 µM; against MKK4, > 10 µM; on MKK7, 0.014 µM. Further, the “effect on pERK levels” value with pERK in HEK293 cells is listed as “did not affect”. Further, the “effect on pP38 levels” value with pP38 in HEK293 cells was “did not affect”.
`CCC(=O)Nc1cccc(-c2[nH]nc3ccccc23)c1` [PCM520]: in the test on JNK activation, the EC50 was > 10 µM.
Take `C=CC(=O)Nc1cccc(-c2nn(C)c3ccccc23)c1` [PCM521]: the EC50 in the test on JNK activation is > 10 µM.
For `C#CCNC(=O)c1cc(NC(=O)C=C)cc(-c2n[nH]c3ccccc23)c1` [PCM548], the figures for the proteins labeled entry in test [1] (at 2 μM), in test [1] (at 5 μM) and in test [1] (at 10 μM) were “the only target”, “MKK7 seems to be the dominant target” and “labels many proteins”, respectively. In addition, the inhibition (usually the relative decrease from the control value, in per cent) at 10 µM in the test on primary mouse B-cells (10 μM, 2 hours pre-incubation) was ~90%. In the test on primary mouse B-cells (full dose response), the IC50 was found to be 5.3 µM.
